Our source for the IC50 values is patent US12371428B2 (Exelixis, Inc., priority 2019, dated 2025).

Assay [1] deals with Met (phospho-Met, HGF-stimulated PC-3 prostate cancer cells) (Homo sapiens (Human), UniProt P08581). Description: Met autophosphorylation ELISA in PC-3 cells (Example F). In kind it is cell-based. Particulars: cellular activity; Met autophosphorylation ELISA in PC-3 cells; read-out: c-Met IC50. Put shortly: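 Sandwich ELISA for phospho-Met (panTyr) in PC-3 lysates. Cells starved 3 h serum-free, compound 1 h (8-pt curve, 0.3% DMSO), HGF 100 ng/mL 10 min. 100% = HGF + DMSO; 0% = HGF + reference inhibitor. IC50 by 4-parameter fit.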
Sequence of Met (phospho-Met, HGF-stimulated PC-3 prostate cancer cells) (P08581 25-1390): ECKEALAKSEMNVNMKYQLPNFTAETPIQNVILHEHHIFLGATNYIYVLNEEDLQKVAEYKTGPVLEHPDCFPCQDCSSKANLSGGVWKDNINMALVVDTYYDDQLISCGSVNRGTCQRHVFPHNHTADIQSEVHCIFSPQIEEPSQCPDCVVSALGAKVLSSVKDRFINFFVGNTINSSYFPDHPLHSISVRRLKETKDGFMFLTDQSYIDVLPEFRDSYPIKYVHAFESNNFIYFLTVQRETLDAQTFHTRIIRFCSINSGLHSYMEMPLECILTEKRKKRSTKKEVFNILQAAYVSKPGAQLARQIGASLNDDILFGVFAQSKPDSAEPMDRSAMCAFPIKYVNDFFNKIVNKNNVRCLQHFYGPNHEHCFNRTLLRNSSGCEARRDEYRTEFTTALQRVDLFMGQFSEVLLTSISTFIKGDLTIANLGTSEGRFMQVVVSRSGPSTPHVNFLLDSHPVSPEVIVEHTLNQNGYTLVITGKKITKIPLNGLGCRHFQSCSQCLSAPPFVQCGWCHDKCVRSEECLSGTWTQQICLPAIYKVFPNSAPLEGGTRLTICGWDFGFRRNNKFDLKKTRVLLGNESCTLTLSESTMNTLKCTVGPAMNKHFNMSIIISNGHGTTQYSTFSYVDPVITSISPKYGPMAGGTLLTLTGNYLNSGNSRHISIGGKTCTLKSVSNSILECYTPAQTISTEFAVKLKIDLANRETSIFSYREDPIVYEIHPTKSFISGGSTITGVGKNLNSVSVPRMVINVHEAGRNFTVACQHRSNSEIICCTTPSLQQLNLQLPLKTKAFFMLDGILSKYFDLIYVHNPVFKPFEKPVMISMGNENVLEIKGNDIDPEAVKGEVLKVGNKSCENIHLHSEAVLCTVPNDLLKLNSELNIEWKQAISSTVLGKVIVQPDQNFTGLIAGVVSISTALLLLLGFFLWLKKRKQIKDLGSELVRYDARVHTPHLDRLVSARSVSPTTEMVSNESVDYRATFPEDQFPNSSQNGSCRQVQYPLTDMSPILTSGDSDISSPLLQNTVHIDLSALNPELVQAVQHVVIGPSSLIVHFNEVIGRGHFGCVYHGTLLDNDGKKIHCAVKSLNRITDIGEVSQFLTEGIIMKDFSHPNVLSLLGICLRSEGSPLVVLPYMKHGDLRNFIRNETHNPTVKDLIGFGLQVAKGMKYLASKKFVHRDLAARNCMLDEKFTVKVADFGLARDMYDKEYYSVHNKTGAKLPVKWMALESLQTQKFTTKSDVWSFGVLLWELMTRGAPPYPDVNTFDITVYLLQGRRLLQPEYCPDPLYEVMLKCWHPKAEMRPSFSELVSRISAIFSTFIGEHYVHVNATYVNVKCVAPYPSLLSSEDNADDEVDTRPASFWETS

The target of assay [2] is Human KDR (residues 790-1356) (Homo sapiens (Human), UniProt P35968). Description: Human KDR kinase assay, HTRF KinEase (Example B-2). In kind it is biochemical. Particulars: protocol of Example B-2. Put shortly: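 Ten compound concentrations (3% DMSO final) were pre-plated, then KDR (790-1356) with biotinylated peptide in Mg/Mn/DTT buffer was added; ATP at Km (4.0 μM) started a 40 min room-temperature reaction. Detection used Eu-TK antibody and SA-XL665 in EDTA buffer; activity normalized to DMSO and reference inhibitor, IC50 by logistic fit.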
Sequence of Human KDR (residues 790-1356) (P35968 790-1356): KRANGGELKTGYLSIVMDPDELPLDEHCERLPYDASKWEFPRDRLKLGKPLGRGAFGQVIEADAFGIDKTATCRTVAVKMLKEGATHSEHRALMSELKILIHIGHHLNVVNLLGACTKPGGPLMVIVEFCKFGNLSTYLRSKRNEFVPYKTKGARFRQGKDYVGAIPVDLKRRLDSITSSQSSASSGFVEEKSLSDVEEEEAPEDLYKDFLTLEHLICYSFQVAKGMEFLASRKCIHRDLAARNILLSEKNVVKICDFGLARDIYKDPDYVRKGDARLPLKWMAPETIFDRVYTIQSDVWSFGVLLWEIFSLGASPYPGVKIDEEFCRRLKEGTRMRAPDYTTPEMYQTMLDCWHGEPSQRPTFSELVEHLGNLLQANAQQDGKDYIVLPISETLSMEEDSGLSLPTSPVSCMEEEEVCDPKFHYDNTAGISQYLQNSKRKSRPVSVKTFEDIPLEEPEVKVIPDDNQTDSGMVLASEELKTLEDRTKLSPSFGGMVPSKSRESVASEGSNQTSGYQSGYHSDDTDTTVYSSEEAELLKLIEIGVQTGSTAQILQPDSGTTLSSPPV

In assay [3] the target is Human MER (residues 528-999) (Homo sapiens (Human), UniProt Q12866). The experiment in a line: Human Mer kinase assay, HTRF KinEase (Example C-2). Particulars: protocol of Example C-2. In kind it is biochemical. Put shortly: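 IC50 values from 10 concentrations via 4-parameter logistic fit of […], with DMSO as 100% and 1 μM reference compound as 0% activity. Reaction: MER kinase domain 528-999, 1 ng/well, 40 μM ATP (Km), biotin peptide, 5 mM MgCl2, 1 mM DTT, 3% DMSO, room temperature 60 min; HTRF streptavidin-XL665/Eu-antibody detection.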
Sequence of Human MER (residues 528-999) (Q12866 528-999): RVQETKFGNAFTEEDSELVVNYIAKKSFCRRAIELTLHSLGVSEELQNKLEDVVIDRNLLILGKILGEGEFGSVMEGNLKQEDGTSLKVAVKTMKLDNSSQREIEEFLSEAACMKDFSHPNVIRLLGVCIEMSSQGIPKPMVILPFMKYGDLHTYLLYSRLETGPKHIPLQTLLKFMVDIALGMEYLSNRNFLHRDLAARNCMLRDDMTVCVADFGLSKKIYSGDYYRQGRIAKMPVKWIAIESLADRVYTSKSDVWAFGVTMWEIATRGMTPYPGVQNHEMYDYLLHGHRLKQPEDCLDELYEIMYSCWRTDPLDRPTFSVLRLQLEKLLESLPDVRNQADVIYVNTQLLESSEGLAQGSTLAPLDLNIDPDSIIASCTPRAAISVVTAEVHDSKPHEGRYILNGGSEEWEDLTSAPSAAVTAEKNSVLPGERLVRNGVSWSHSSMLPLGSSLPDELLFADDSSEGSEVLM
A general note: Time-resolved FRET reads energy transfer from a long-lived donor to a nearby acceptor.

In assay [4] the target is Mer (phospho-Mer, MERTK-transfected 293A cells) (Homo sapiens (Human), UniProt Q12866). Description: Mer autophosphorylation ELISA in transient transfected 293A cells (Example H). In kind it is cell-based. Particulars: cellular activity; Mer autophosphorylation ELISA in transient transfected 293A cells. Put shortly: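 IC50 from 4-parameter logistic fit of phospho-Mer levels, quantified by ELISA against a phospho-Mer standard in lysates of MERTK-transfected 293A cells. Cells exposed 1 h to 8-point serial dilutions, serum-free, 0.3% DMSO; controls: DMSO (100%) and reference inhibitor (0%).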
Sequence of Mer (phospho-Mer, MERTK-transfected 293A cells) (Q12866 21-999): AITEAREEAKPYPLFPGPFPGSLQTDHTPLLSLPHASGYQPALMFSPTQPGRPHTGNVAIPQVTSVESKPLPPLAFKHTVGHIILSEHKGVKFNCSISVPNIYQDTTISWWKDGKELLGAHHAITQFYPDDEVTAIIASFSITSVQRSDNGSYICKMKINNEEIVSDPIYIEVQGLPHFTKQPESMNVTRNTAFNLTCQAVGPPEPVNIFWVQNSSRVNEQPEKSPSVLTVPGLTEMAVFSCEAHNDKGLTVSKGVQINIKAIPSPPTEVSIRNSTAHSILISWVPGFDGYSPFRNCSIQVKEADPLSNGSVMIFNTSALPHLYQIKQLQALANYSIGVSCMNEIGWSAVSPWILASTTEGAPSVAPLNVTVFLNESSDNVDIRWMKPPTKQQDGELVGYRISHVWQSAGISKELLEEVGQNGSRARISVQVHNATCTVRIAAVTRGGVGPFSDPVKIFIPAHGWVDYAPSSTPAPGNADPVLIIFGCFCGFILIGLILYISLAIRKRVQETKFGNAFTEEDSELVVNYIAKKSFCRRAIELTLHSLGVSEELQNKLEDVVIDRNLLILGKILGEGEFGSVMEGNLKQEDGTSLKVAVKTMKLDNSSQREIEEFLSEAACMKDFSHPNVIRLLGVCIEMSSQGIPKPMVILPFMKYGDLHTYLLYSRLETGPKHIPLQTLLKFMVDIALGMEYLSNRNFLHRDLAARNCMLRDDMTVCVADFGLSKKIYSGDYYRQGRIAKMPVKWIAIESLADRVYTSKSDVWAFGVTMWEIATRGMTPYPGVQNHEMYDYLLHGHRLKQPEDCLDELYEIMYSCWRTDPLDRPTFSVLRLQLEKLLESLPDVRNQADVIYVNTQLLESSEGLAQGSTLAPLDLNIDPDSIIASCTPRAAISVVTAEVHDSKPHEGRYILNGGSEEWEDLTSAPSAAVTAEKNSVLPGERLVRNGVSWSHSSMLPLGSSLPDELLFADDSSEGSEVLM
A general note: An ELISA detects its analyte on a solid surface through an enzyme-linked reagent.

Structures are written as SMILES. Bounds are passed on as bounds.

Regarding `COc1cc2nccc(Oc3ccc(NC(=O)c4cn(C)c(CF)c(-c5ccc(F)cc5C)c4=O)cc3F)c2nc1OC` [Compound 556, N-[4-[(6,7-Dimethoxy-1,5-naphthyridin-4-yl)oxy]-3-fluorophenyl]-6-(fluoromethyl)-5-(4-fluoro-2-methylphenyl)-1-methyl-4-oxopyridine-3-carboxamide], the IC50 in assay [1] is less than 100 nM; in assay [2], greater than 300 nM; in assay [3], less than 100 nM; in assay [4], less than 100 nM.

As to `COCCOc1nc2c(Oc3ccc(NC(=O)c4cn(C)c(CF)c(-c5ccc(F)cc5)c4=O)cc3F)ccnc2cc1OC` [Compound 557, N-[3-Fluoro-4-[[7-methoxy-6-(2-methoxyethoxy)-1,5-naphthyridin-4-yl]oxy]phenyl]-6-(fluoromethyl)-5-(4-fluorophenyl)-1-methyl-4-oxopyridine-3-carboxamide], the IC50 in assay [1] is less than 100 nM; in assay [2], 100 to 300 nM; in assay [3] it was less than 100 nM; in assay [4] it was less than 100 nM.

Turning to `CCn1cc(C(=O)Nc2ccc(Oc3ccnc4cc(OC)c(OC)nc34)cc2)c(=O)c(-c2ccc(F)cc2)c1CF` [Compound 558, N-[4-[(6,7-Dimethoxy-1,5-naphthyridin-4-yl)oxy]phenyl]-1-ethyl-6-(fluoromethyl)-5-(4-fluorophenyl)-4-oxopyridine-3-carboxamide], the IC50 is less than 100 nM in assay [1], greater than 300 nM in assay [2], less than 100 nM in assay [3] and less than 100 nM in assay [4].

Consider `CCn1cc(C(=O)Nc2ccc(Oc3ccnc4cc(OC)cnc34)c(F)c2)c(=O)c(-c2ccc(F)cc2)c1CF` [Compound 559, 1-Ethyl-N-[3-fluoro-4-[(7-methoxy-1,5-naphthyridin-4-yl)oxy]phenyl]-6-(fluoromethyl)-5-(4-fluorophenyl)-4-oxopyridine-3-carboxamide], for which the IC50 in assay [1] was less than 100 nM; in assay [2], greater than 300 nM; in assay [3], less than 100 nM; in assay [4], less than 100 nM.

Turning to `COc1cc2nccc(Oc3ccc(NC(=O)c4cn(C)c(CF)c(-c5ccc(F)cc5)c4=O)cc3)c2nc1OC` [Compound 560, N-[4-[(6,7-Dimethoxy-1,5-naphthyridin-4-yl)oxy]phenyl]-6-(fluoromethyl)-5-(4-fluorophenyl)-1-methyl-4-oxopyridine-3-carboxamide], the IC50 in assay [1] was less than 100 nM; in assay [2] it was greater than 300 nM; in assay [3], less than 100 nM; in assay [4] it was less than 100 nM.

`COc1ccc2nccc(Oc3ccc(NC(=O)c4cn(C)c(CF)c(-c5ccc(F)cc5)c4=O)cc3F)c2n1` [Compound 561, N-[3-Fluoro-4-[(6-methoxy-1,5-naphthyridin-4-yl)oxy]phenyl]-6-(fluoromethyl)-5-(4-fluorophenyl)-1-methyl-4-oxopyridine-3-carboxamide]: the IC50 in assay [1] was less than 100 nM; in assay [2], greater than 300 nM; in assay [3] it was less than 100 nM; in assay [4], less than 100 nM.

Consider `CCn1cc(C(=O)Nc2ccc(Oc3ccnc4cc(OC)c(OC)nc34)c(F)c2)c(=O)c(-c2ccc(F)cc2)c1CF` [Compound 562, N-[4-[(6,7-Dimethoxy-1,5-naphthyridin-4-yl)oxy]-3-fluorophenyl]-1-ethyl-6-(fluoromethyl)-5-(4-fluorophenyl)-4-oxopyridine-3-carboxamide], for which the IC50 is less than 100 nM in assay [1], greater than 300 nM in assay [2], less than 100 nM in assay [3] and less than 100 nM in assay [4].

As a reminder, the IC50 is the concentration needed to halve the response being measured.
